Assay [1] deals with MDA-MB-231. To be noted: Homo sapiens, 100 to 200 uM.
Description: Antiangiogenic activity in human MDA-MB-231 cells assessed as inhibition of PMA-induced MMP-9 expression at 100 to 200 uM after 24 hrs by densitometric analysis relative to vehicle-treated control
Assay [2] relates to MDA-MB-231. To be noted: Homo sapiens, 200 uM.
Description: Antiangiogenic activity in human MDA-MB-231 cells assessed as inhibition of PMA-induced MMP-9 expression at 200 uM after 24 hrs by gelatine zymography relative to vehicle-treated control
In assay [3] the test system is MDA-MB-231. To be noted: Homo sapiens, 25 to 200 uM.
Description: Antiangiogenic activity in human MDA-MB-231 cells assessed as inhibition of VEGF protein expression at 25 to 200 uM after 24 hrs by ELISA relative to vehicle-treated control
For the next assay, the target named is T1, Thymidine phosphorylase (Homo sapiens, UniProt P19971).
T1 sequence (P19971 whole entry): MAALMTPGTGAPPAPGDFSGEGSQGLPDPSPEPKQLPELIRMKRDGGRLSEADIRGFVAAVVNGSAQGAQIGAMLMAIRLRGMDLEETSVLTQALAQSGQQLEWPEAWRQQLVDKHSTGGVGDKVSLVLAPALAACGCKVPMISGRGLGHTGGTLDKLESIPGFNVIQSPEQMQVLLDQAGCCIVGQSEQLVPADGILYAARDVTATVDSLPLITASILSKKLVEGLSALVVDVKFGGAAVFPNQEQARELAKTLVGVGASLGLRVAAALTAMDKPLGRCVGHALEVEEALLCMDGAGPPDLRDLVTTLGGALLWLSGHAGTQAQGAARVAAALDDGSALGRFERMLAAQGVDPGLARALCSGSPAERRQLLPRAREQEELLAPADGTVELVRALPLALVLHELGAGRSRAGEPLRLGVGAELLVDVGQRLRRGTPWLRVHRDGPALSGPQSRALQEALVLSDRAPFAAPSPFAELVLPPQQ
The assay can be described thus: Inhibition of human recombinant thymidine phosphorylase expressed in Escherichia coli using thymidine as substrate after 4 to 20 mins by spectrophotometry.

Assay [4] has as its system MDA-MB-231. The note with it: Homo sapiens, 50 to 100 uM.
Description: Antiangiogenic activity in human MDA-MB-231 cells assessed as inhibition of PMA-induced MMP-9 expression at 50 to 100 uM after 24 hrs by densitometric analysis relative to vehicle-treated control

We go through 5 compounds from ChEMBL document CHEMBL2417489, “A structure-activity relationship study of 1,2,4-triazolo[1,5-a][1,3,5]triazin-5,7-dione and its 5-thioxo analogues on anti-thymidine phosphorylase and associated anti-angiogenic activities” (Eur J Med Chem, 2013).

The source made the active and inactive calls. No cut-off for these calls is given here. Bounds are passed on as bounds.

As usually defined, the IC50 is the midpoint of a concentration-inhibition curve.

Regarding `O=c1[nH]c(=S)[nH]c2nc(-c3ccc(Cl)c(Cl)c3)nn12`, the inhibition entry in the assay on MDA-MB-231 [1], in the assay with MDA-MB-231 [2] and with MDA-MB-231 [3] was “Active” each time.
In the case of `Cc1cc(-c2nc3[nH]c(=S)[nH]c(=O)n3n2)ccc1Br`, the inhibition entry with MDA-MB-231 [1], in the assay on MDA-MB-231 [2] and with MDA-MB-231 [3] was “Active” each time.
Turning to `O=c1[nH]c(=O)n2nc(-c3ccccc3)nc2[nH]1`, the IC50 at Thymidine phosphorylase is greater than 100 µM.
Regarding `O=c1[nH]c(=S)[nH]c2nc(Cc3ccc(Cl)c(Cl)c3)nn12`, the inhibition entry with MDA-MB-231 [4] is “inactive”. Further, the inhibition entry with MDA-MB-231 [2] and with MDA-MB-231 [3] was “Active” throughout.
As to `O=c1[nH]c(=O)n2nc(Cc3ccccc3)nc2[nH]1`, the IC50 at Thymidine phosphorylase is greater than 100 µM.
